Results on 41 compounds are retold here after patent US11591336B2 (Relay Therapeutics, Inc., priority 2017, dated 2023).

Where a name gives a salt, the structure may show the parent alone.

This assay deals with SHP2 (Homo sapiens (Human), UniProt Q06124). Nature of the assay: SHP2 Allosteric Inhibition Assay (DiFMUP prompt fluorescence). The settings on record: 0.25 nM SHP2 activated with 0.5 μM peptide IRS1_pY1172(dPEG8)pY1222; substrate DiFMUP 100 μM; 25° C. The assay is classed as biochemical.
Sequence of SHP2 (Q06124 whole entry): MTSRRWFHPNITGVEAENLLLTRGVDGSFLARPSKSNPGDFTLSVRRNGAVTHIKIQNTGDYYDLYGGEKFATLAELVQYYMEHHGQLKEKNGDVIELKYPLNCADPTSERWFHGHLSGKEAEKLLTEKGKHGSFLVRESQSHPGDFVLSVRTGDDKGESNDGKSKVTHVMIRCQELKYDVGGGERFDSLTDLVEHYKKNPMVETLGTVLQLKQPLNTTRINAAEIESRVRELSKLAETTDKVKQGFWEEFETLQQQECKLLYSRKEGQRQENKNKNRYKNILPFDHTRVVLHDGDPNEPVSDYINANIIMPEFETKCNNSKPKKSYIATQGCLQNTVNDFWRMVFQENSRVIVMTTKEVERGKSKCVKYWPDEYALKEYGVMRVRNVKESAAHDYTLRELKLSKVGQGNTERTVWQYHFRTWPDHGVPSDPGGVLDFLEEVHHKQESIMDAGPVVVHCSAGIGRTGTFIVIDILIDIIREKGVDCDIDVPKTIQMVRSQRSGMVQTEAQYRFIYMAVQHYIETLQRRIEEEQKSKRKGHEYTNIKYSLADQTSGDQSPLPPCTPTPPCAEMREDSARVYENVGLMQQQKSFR
In turn, `CC1CCN(c2n[nH]c3nc(N4CCC(C)(CN)CC4)cnc23)c2ccc(-c3ncn[nH]3)cc21` (centres unmarked) [Compound 165] yielded an IC50 of under 1000 nM.

For `CC1CCN(c2n[nH]c3nc(N4CCC5(CC4)CO[C@@H](C)[C@H]5N)cnc23)c2ccc(C(N)=O)nc21` (stereo in doubt) [Compound 265, (8R)-5-{6-[(3S,4S)-4-amino-3-methyl-2-oxa-8-azaspiro[4.5]decan-8-yl]-1H-pyrazolo[3,4-b]pyrazin-3-yl}-8-methyl-5,6,7,8-tetrahydro-1,5-naphthyridine-2-carboxamide], the IC50 is under 1000 nM.

Consider `CNC(=O)N1CCN(c2n[nH]c3nc(N4CCC(C)(CN)CC4)cnc23)c2ccccc21` [Compound 189], for which the half-inhibitory concentration (IC50) was under 1000 nM.

`COC(=O)CCc1ncccc1Nc1n[nH]c2nc(N3CCC(C)(N)CC3)cnc12` [Compound 495, methyl 3-[3-[[6-(4-amino-4-methyl-1-piperidyl)-1H-pyrazolo[3,4-b]pyrazin-3-yl]amino]-2-pyridyl]propanoate] came in with a half-maximal inhibitory concentration (IC50) of 1000 to 10000 nM.

`COCCNC(=O)c1ccc2c(n1)[C@@H](C)CCN2c1n[nH]c2nc(N3CCC4(CC3)CO[C@@H](C)[C@H]4N)cnc12` [Compound 443] displayed a half-maximal inhibitory concentration (IC50) of under 1000 nM.

For the compound `C[C@@H]1OCC2(CCN(c3cnc4c(N5CCN([C@H]6C[C@H](O)C6)c6cc(C#N)ccc65)n[nH]c4n3)CC2)[C@@H]1N` [Compound 411], the IC50 is under 1000 nM.

For `C[C@@H]1OCC2(CCN(c3cnc4c(N5CC[C@H](C)c6cc(C#N)ccc65)n[nH]c4n3)CC2)[C@@H]1N` [Compound 220], the 50% inhibitory concentration (IC50) is under 1000 nM.

For `C[C@@H]1OCC2(CCN(c3cnc4c(N5CC[C@H](C)c6nc(-c7noc(=O)[nH]7)ccc65)n[nH]c4n3)CC2)[C@@H]1N` (relative stereo) [Compound 451, 3-[(8R*)-5-{6-[(3S,4S)-4-amino-3-methyl-2-oxa-8-azaspiro[4.5]decan-8-yl]-1H-pyrazolo[3,4-b]pyrazin-3-yl}-8-methyl-5,6,7,8-tetrahydro-1,5-naphthyridin-2-yl]-4,5-dihydro-1,2,4-oxadiazol-5-one], the IC50 was under 1000 nM.

For the compound `CC1(CN)CCN(c2cnc3c(N4CCC(C)(C)c5ccccc54)n[nH]c3n2)CC1` [Compound 88], the IC50 was under 1000 nM.

`CN=[S@](C)(=O)c1cccc2c1CCCN2c1n[nH]c2nc(N3CCC4(CC3)CO[C@@H](C)[C@H]4N)cnc12` [Compound 419] gave an IC50 of under 1000 nM.

On to `C[C@@H]1OCC2(CCN(c3cnc4c(N5CCCc6sccc65)n[nH]c4n3)CC2)[C@@H]1N` [Compound 394], for which the IC50 is under 1000 nM.

For `C[C@@H]1OCC2(CCN(c3cnc4c(N5CCN(CC(=O)N(C)C)c6cc(C#N)ccc65)n[nH]c4n3)CC2)[C@@H]1N` [Compound 453, 2-(4-{6-[(3S,4S)-4-amino-3-methyl-2-oxa-8-azaspiro[4.5]decan-8-yl]-1H-pyrazolo[3,4-b]pyrazin-3-yl}-7-cyano-1,2,3,4-tetrahydroquinoxalin-1-yl)-N,N-dimethylacetamide], the half-inhibitory concentration (IC50) was under 1000 nM.

The compound `C[C@@H]1OCC2(CCN(c3cnc4c(N5CCc6ccccc6C5=O)n[nH]c4n3)CC2)[C@@H]1N` [Compound 270] showed a 50% inhibitory concentration (IC50) of under 1000 nM.

Consider `CCCC1(CN)CCN(c2cnc3c(N4CCCc5ncccc54)n[nH]c3n2)CC1` [Compound 97, (1-(3-(3,4-dihydro-1,5-naphthyridin-1(2H)-yl)-1H-pyrazolo[3,4-b]pyrazin-6-yl)-4-propylpiperidin-4-yl)methanamine dihydrochloride], for which the IC50 is under 1000 nM.

For the compound `CNC(=O)c1cccc2c1CCN2c1n[nH]c2nc(N3CCC(C)(CN)CC3)cnc12` [Compound 107, 1-(6-(4-(aminomethyl)-4-methylpiperidin-1-yl)-1H-pyrazolo[3,4-b]pyrazin-3-yl)-N-methylindoline-4-carboxamide], the IC50 is under 1000 nM.

Regarding `C[C@@H]1OCC2(CCN(c3cnc4c(N5CCCc6c5ccnc6C(N)=O)n[nH]c4n3)CC2)[C@@H]1N` [Compound 335, 1-{6-[(3S,4S)-4-amino-3-methyl-2-oxa-8-azaspiro[4.5]decan-8-yl]-1H-pyrazolo[3,4-b]pyrazin-3-yl}-1,2,3,4-tetrahydro-1,6-naphthyridine-5-carboxamide], the IC50 was under 1000 nM.

For the compound `CC(=O)NCc1ccc2c(n1)CCCN2c1n[nH]c2nc(N3CCC4(CC3)CO[C@@H](C)[C@H]4N)cnc12` [Compound 306, N-[(5-{6-[(3S,4S)-4-amino-3-methyl-2-oxa-8-azaspiro[4.5]decan-8-yl]-1H-pyrazolo[3,4-b]pyrazin-3-yl}-5,6,7,8-tetrahydro-1,5-naphthyridin-2-yl)methyl]acetamide dihydrochloride], the IC50 was under 1000 nM.

`CC1(N)CCN(c2cnc3c(N4C(=O)CCc5ncccc54)n[nH]c3n2)CC1` [Compound 39, 1-(6-(4-amino-4-methylpiperidin-1-yl)-1H-pyrazolo[3,4-b]pyrazin-3-yl)-3,4-dihydro-1,5-naphthyridin-2(1H)-one] had a concentration for half-maximal inhibition (IC50) of 1000 to 10000 nM.

In turn, `C[C@@H]1OCC2(CCN(c3cnc4c(N5CCN(C)c6nnccc65)n[nH]c4n3)CC2)[C@@H]1N` [Compound 413] had a concentration for half-maximal inhibition (IC50) of under 1000 nM.

The compound `C[C@@H]1OCC2(CCN(c3cnc4c(N5CCCc6c5cccc6[S@](C)(=N)=O)n[nH]c4n3)CC2)[C@@H]1N` [Compound 422] yielded an IC50 of under 1000 nM.

For the compound `CC1(CN)CCN(c2cnc3c(C(=O)c4ccccc4)n[nH]c3n2)CC1` [Compound 18, (6-(4-(aminomethyl)-4-methylpiperidin-1-yl)-1H-pyrazolo[3,4-b]pyrazin-3-yl)(phenyl)methanone], the IC50 lay in the range of 1000 to 10000 nM.

For `COCCNC(=O)c1ccc2c(n1)C(C)CCN2c1n[nH]c2nc(N3CCC4(CC3)CO[C@@H](C)[C@H]4N)cnc12` (stereo in doubt) [Compound 437, (8S)-5-(6-[(3S,4S)-4-amino-3-methyl-2-oxa-8-azaspiro[4.5]decan-8-yl]-1H-pyrazolo[3,4-b]pyrazin-3-yl)-N-(2-methoxyethyl)-8-methyl-5,6,7,8-tetrahydro-1,5-naphthyridine-2-carboxamide hydrochloride], the IC50 was under 1000 nM.

Regarding `C[C@@H]1OCC2(CCN(c3cnc4c(N5CCCc6c(C(=O)O)cccc65)n[nH]c4n3)CC2)[C@@H]1N` [Compound 244, 1-(6-((3S,4S)-4-amino-3-methyl-2-oxa-8-azaspiro[4.5]decan-8-yl)-1H-pyrazolo[3,4-b]pyrazin-3-yl)-1,2,3,4-tetrahydroquinoline-5-carboxylic Acid], the half-inhibitory concentration (IC50) was under 1000 nM.

Compound `C[C@@H]1OCC2(CCN(c3cnc4c(N5CCCc6nc(C7=CCOC7)ccc65)n[nH]c4n3)CC2)[C@@H]1N` [Compound 336] gave a concentration for half-maximal inhibition (IC50) of under 1000 nM.

In the case of `C[C@@H]1OCC2(CCN(c3cnc4c(N5CCC(=C(F)F)c6ccccc65)n[nH]c4n3)CC2)[C@@H]1N` [Compound 231], the half-maximal inhibitory concentration (IC50) is under 1000 nM.

`NC[C@@H]1C[C@H]2CC[C@@H](C1)N2c1cnc2c(N3CCCc4ncccc43)n[nH]c2n1` [Compound 150] returned an IC50 of under 1000 nM.

As for `C[C@@H]1OCC2(CCN(c3cnc4c(N5CCN(C)c6nc(-c7cnn(C)c7)ccc65)n[nH]c4n3)CC2)[C@@H]1N` [Compound 310, (3S,4S)-3-methyl-8-(3-(4-methyl-6-(1-methyl-1H-pyrazol-4-yl)-3,4-dihydropyrido[2,3-b]pyrazin-1(2H)-yl)-1H-pyrazolo[3,4-b]pyrazin-6-yl)-2-oxa-8-azaspiro[4.5]decan-4-amine], the IC50 was under 1000 nM.

On to `N[C@@H]1CCC[C@]12CCN(c1cnc3c(N4CCCc5ncccc54)n[nH]c3n1)C2` (stereo in doubt) [Compound 204, rel-(5R,6R)-2-(3-(3,4-dihydro-1,5-naphthyridin-1(2H)-yl)-1H-pyrazolo[3,4-b]pyrazin-6-yl)-2-azaspiro[4.4]nonan-6-amine], for which the half-maximal inhibitory concentration (IC50) lay in the range of 1000 to 10000 nM.

As to `C[C@@H]1OCC2(CCN(c3cnc4c(N5CCCc6cc(-c7cnn(C)c7)ccc65)n[nH]c4n3)CC2)[C@@H]1N` [Compound 365], the IC50 is under 1000 nM.

`CN=[S@@](C)(=O)c1cccc2c1CCCN2c1n[nH]c2nc(N3CCC4(CC3)CO[C@@H](C)[C@H]4N)cnc12` [Compound 420]: the IC50 is under 1000 nM.

Turning to `CNC(=O)c1cccc2c1CCCN2c1n[nH]c2nc(N3CCC(C)(CN)CC3)cnc12` [Compound 79, 1-(6-(4-(Aminomethyl)-4-methylpiperidin-1-yl)-1H-pyrazolo[3,4-b]pyrazin-3-yl)-N-methyl-1,2,3,4-tetrahydroquinoline-5-carboxamide], the half-inhibitory concentration (IC50) was under 1000 nM.

For the compound `NC[C@H]1CCN(c2cnc3c(N4CCCc5ncccc54)n[nH]c3n2)[C@H](Cc2ccccc2)C1` (racemic) [Compound 158], the IC50 is at least 10000 nM.

Take `C[C@H]1Cc2ccccc2N1c1n[nH]c2nc(N3CCC(C)(CN)CC3)cnc12` [Compound 134]: the IC50 is under 1000 nM.

`CC1(N)CCN(c2cnc3c(Oc4cccnc4N)n[nH]c3n2)CC1` [Compound 508, 3-((6-(4-Amino-4-methylpiperidin-1-yl)-1H-pyrazolo[3,4-b]pyrazin-3-yl)oxy)pyridin-2-amine hydrochloride] displayed a 50% inhibitory concentration (IC50) of 1000 to 10000 nM.

`C[C@H]1c2ccccc2CN1c1n[nH]c2nc(N3CCC(C)(CN)CC3)cnc12` [Compound 170] showed a 50% inhibitory concentration (IC50) of under 1000 nM.

`C[C@@H]1OCC2(CCN(c3cnc4c(N5CCCc6c5ccc(C#N)c6[C@H]5CC(=O)N(C)C5)n[nH]c4n3)CC2)[C@@H]1N` [Compound 525] registered an IC50 of under 1000 nM.

Take `Cn1cc(-c2cccc3c2CCCN3c2n[nH]c3nc(N4CCC(C)(N)CC4)cnc23)cn1` [Compound 61]: the half-inhibitory concentration (IC50) was under 1000 nM.

As for `C[C@@H]1OCC2(CCN(c3cnc4c(N5CCc6ccc(-c7cnn(C)c7)cc6C5)n[nH]c4n3)CC2)[C@@H]1N` [Compound 337], the IC50 was under 1000 nM.

The compound `C[C@@H]1OCC2(CCN(c3cnc4c(N5CCN(C)c6ncccc65)n[nH]c4n3)CC2)[C@@H]1N` [Compound 301] came in with a half-inhibitory concentration (IC50) of under 1000 nM.

`C[C@@H]1OCC2(CCN(c3cnc4c(N5CCN(C)c6nc(Cl)ccc65)n[nH]c4n3)CC2)[C@@H]1N` [Compound 377] yielded an IC50 of under 1000 nM.

In turn, `C[C@@H]1OCC2(CCN(c3cnc4c(N5CCCc6nc(-c7cnccn7)ccc65)n[nH]c4n3)CC2)[C@@H]1N` [Compound 350] displayed an IC50 of under 1000 nM.
